The text below walks through data of patent US12527810B2, “Pharmaceutical composition, methods for treating and uses thereof” (Boehringer Ingelheim International GmbH, priority 2009, dated 2026).

A short description of data set [1]: particle size distribution measurement by laser diffraction. Type of data set: physicochemical. The following applies: milled active substance. From the text: The value X90 refers to the 90% value of the volume distribution measured using a laser diffractometer. In other words, for the purposes of the present invention, the X90 value denotes the particle size below which 90% of the quantity of particles is found based on the volume distribution. Analogously the value X50 refers to the 50% value (median) of the volume distribution measured using a laser diffractometer. In other words, for the purposes of the present invention, the X50 value denotes the particle size below which 50% of the quantity of particles is found based on the volume distribution. Analogously the value X10 refers to the 10% value of the volume distribution measured using a laser diffractometer. In other words, for the purposes of the present invention, the X10 value denotes the particle size below which 10% of the quantity of particles is found based on the volume distribution.
Preferably all X90, X50, X10 values hereinbefore and hereinafter are by volume and determined by laser-diffraction method, in particular low angle laser light scattering, i.e. Fraunhofer diffraction. A preferred test is described in the experimental section. The laser diffraction method is sensitive to the volume of a particle and provides a volume-average particle size, which is equivalent to the weight-average particle size if the density is constant. The skilled artesian knows that the results of the particle size distribution determination by one technique can be correlated with that from another technique, for example on an empirical basis by routine experimentation. Alternatively the particle size distribution in the pharmaceutical composition or dosage form can be determined by microscopy, in particular electron microscopy or scanning electron microscopy.
Particle size distribution measurement is performed for example via light scattering or laser diffraction technique. To determine the particle size the powder is fed into a laser diffraction spectrometer for example by means of a dispersing unit. The test method is described below in detail: • Equipment: Laser Diffraction Spectrometer Sympatec HELOS Particle Sizer. • Lens: R31 (0.5/0.9 μm-175 μm) • Sample Dispersing Unit: Dry disperser RODOS/M • Vacuum: Nilfisk • Feeder: ASPIROS • Feed Velocity: 60.00 mm/s • Primary pressure: 2.00 bar • Injector depression: maximize (mbar)2 • Reference Measurement: 10 seconds • Cycle Time: 100 msec • Trigger Conditions: Start 0.0 seconds after optical concentration ≥1% valid always • Stop after 5.0 seconds optical concentration ≤1% or after 30 seconds real time • Optical Concentration: Approximately range 3-12% • Evaluation: HRLD • Sample Size: Approximately 100 mg • Number of measurements: 2 (duplicate)
The instrument is set up according to the manufacturer's recommendation and using the manufacturer provided software. The sample container is thoroughly mixed and tumbled prior to removing a portion of the sample to ensure that a representative sample is tested. Duplicate samples are prepared by using a spatula to transfer approximately 100 mg of a sample into the ASPIROS glass vials and cap the vials. The capped cials are placed into the feeder.

The subject of another data set is blood glucose. Briefly: oral glucose tolerance test in ZDF rats. Type of data set: in vivo, rat. Conditions: oral glucose load 2 g/kg 30 min later. On the procedure:
According to a first example an oral glucose tolerance test is performed in overnight fasted 9-weeks old male Zucker Diabetic Fatty (ZDF) rats (ZDF/Crl-Lepr^fa). A pre-dose blood sample is obtained by tail bleed. Blood glucose is measured with a glucometer, and the animals are randomized for blood glucose (n=5/group). Subsequently, the groups receive a single oral administration of either vehicle alone (0.5% aqueous hydroxyethylcellulose containing 3 mM HCl and 0.015% Polysorbat 80) or vehicle containing the SGLT2 inhibitor. The animals receive an oral glucose load (2 g/kg) 30 min after compound administration. Blood glucose is measured in tail blood 30 min, 60 min, 90 min, 120 min, and 180 min after the glucose challenge. Glucose excursion is quantified by calculating the reactive glucose AUC. The data are presented as mean±SEM. The two-sided unpaired Student t-test is used for statistical comparison of the control group and the active groups.
Compound (I.9) (1-chloro-4-(β-D-glucopyranos-1-yl)-2-[4-((S)-tetrahydrofuran-3-yloxy)-benzyl]-benzene) was orally administered to ZDF rats at doses of 0.3 mg/kg, 3 mg/kg or 30 mg/kg body weight. Compound (I.9) reduced glucose excursion by 15% at 0.3 mg/kg (not significant), by 62% at 3 mg/kg (p<0.001) and by 89% at 30 mg/kg (p<0.001).

In another data set the test system is serum uric acid. The data set can be described thus: twelve week study of serum uric acid levels in patients with manifest type 2 diabetes mellitus. The following applies: type 2 diabetes patients; for serum uric acid level, 12 weeks: after 12 weeks. In kind it is in vivo, human. On the procedure:
In a twelve week study of patients with manifest type 2 diabetes mellitus serum uric acid levels were measured at baseline and every 4 weeks in patients randomized to an administration of the compound (I.9) of 5 mg, 10 mg, or 25 mg or placebo or metformin 2000 mg, daily for 12 weeks.

Data set [2] in a line: body weight in cafeteria-diet obese female Wistar rats. Conditions: 28 days. In kind it is in vivo, rat. On the procedure:
All experimental procedures concerning the use of laboratory animals were carried out under a Home Office Certificate of Designation. An animal model of obesity was used to study the effect of the compound (I.9) on body weight and total body fat content. For this, female Wistar rats were made obese by exposure to a simplified cafeteria diet containing high fat chow, chocolate and ground peanuts for approximately 24 weeks. Following the induction of obesity, rats were given vehicle (0.5% aqueous hydroxyethyl-cellulose) for 7 days and then dosed orally once daily with either vehicle or 3 mg/kg or 10 mg/kg compound (I.9) for 28 days. For the duration of the study rats were maintained on the cafeteria diet. Therein “Cpd A” denotes the glucopyranosyl-substituted benzene derivative (I.9) at a dose of 3 mg/kg or 10 mg/kg. Results are means (adjusted for differences between the body weights of the different treatment groups at baseline (Day 1))±SEM (calculated from the residuals of the statistical model), n=10. After 28 day daily oral treatment with the compound (I.9) a reduced body weight compared to the vehicle-treated control group was observed. Body weight data was analysed by analysis of covariance with body weights on Day 1 as covariate. […]

Data set [3] can be described thus: total body fat content (FoodScan NIR) in cafeteria-diet obese female Wistar rats. In kind it is in vivo, rat. Conditions: 10 mg/kg orally once daily, end of study Day 34, p<0.05. The protocol:
All experimental procedures concerning the use of laboratory animals were carried out under a Home Office Certificate of Designation. An animal model of obesity was used to study the effect of the compound (I.9) on body weight and total body fat content. For this, female Wistar rats were made obese by exposure to a simplified cafeteria diet containing high fat chow, chocolate and ground peanuts for approximately 24 weeks. Following the induction of obesity, rats were given vehicle (0.5% aqueous hydroxyethyl-cellulose) for 7 days and then dosed orally once daily with either vehicle or 3 mg/kg or 10 mg/kg compound (I.9) for 28 days. […] Results are means (adjusted for differences between the body weights of the different treatment groups at baseline (Day 1))±SEM (calculated from the residuals of the statistical model), n=10. […] Body weight data was analysed by analysis of covariance with body weights on Day 1 as covariate. […]
At the end of the study on Day 34 (24 hours after the last treatment on Day 33) all rats were terminated, the body exsanguinated and the following tissues removed: the caudate liver lobe, the pancreas, the left kidney and one soleus muscle. Body composition (body fat, protein and water) was determined using the FoodScan NIR (near infra-red) meat analyser (Foss UK). […] Standard errors of the mean (SEM) are calculated from the residuals of the statistical model. […]

For the next data set, the system named is HbA1c. The following applies: metformin on its own, in the diabetic; cited from earlier work.

With `OC[C@H]1O[C@@H](c2ccc(Cl)c(Cc3ccc(O[C@H]4CCOC4)cc3)c2)[C@H](O)[C@@H](O)[C@@H]1O` [Active substance Batch 1], in data set [1], the “X10 (particle size, volume distribution)” value is 1.8 μm; the “X50 (particle size, volume distribution)” value was determined as 18.9 μm; the “X90 (particle size, volume distribution)” value is listed as 45.3 μm.

As for `OC[C@H]1O[C@@H](c2ccc(Cl)c(Cc3ccc(O[C@H]4CCOC4)cc3)c2)[C@H](O)[C@@H](O)[C@@H]1O` [Active substance Batch 2], in data set [1], the “X10 (particle size, volume distribution)” value amounted to 1.7 μm; the “X50 (particle size, volume distribution)” value came out at 12.1 μm; the “X90 (particle size, volume distribution)” value was determined as 25.9 μm.

`OC[C@H]1O[C@@H](c2ccc(Cl)c(Cc3ccc(O[C@H]4CCOC4)cc3)c2)[C@H](O)[C@@H](O)[C@@H]1O` [Compound (I.9), 1-chloro-4-(β-D-glucopyranos-1-yl)-2-[4-((S)-tetrahydrofuran-3-yloxy)-benzyl]-benzene]: the “reduction of glucose excursion (reactive glucose AUC)” value amounted to 15% in the data set on blood glucose (single oral dose 0.3 mg/kg, not significant); 62% with blood glucose (single oral dose 3 mg/kg, p<0.001); 89% with blood glucose (single oral dose 30 mg/kg, p<0.001). For the same compound, the “serum uric acid level, baseline” value in the data set on serum uric acid (5 mg daily group) is given as 5.5 mg/dL; in the data set on serum uric acid (10 mg daily group) it was 5.3 mg/dL; with serum uric acid (25 mg daily group), 5.4 mg/dL. The “serum uric acid level, 12 weeks” value in the data set on serum uric acid (5 mg daily) was 5.0 mg/dL; in the data set with serum uric acid (10 mg daily), 4.7 mg/dL; with serum uric acid (25 mg daily), 4.7 mg/dL. In addition, the “reduction in serum uric acid levels compared to baseline” value with serum uric acid (all doses (5 mg, 10 mg, 25 mg daily), 12 weeks) fell in the range of 0.5 to 0.7 mg/dL. In addition, the “reduction of body weight versus vehicle control” value in data set [2] (3 mg/kg orally once daily) came out at 4.1%; in data set [2] (10 mg/kg orally once daily, significant (p<0.05)), 6.9%. The “total body fat content (weight per rat) in comparison to vehicle-treated animals” value in data set [3] is reported as “significantly lower”.

Turning to `CN(C)C(=N)N=C(N)N` [Metformin, reference compound], in the data set on serum uric acid (2000 mg daily group), the “serum uric acid level, baseline” value is 5.6 mg/dL. Besides, the “change of serum uric acid levels compared to baseline” value in the data set on serum uric acid (2000 mg daily, 12 weeks) is on record as “increased”. Also, in the data set with serum uric acid (2000 mg daily), the “serum uric acid level, 12 weeks” value stood at 6.2 mg/dL. Further, the “average improvement in the HbA1c value” in the data set with HbA1c is 1.0-1.5%.
